Some test systems named below: A549 NSCLC; NCI-H23 lung; CCRF-CEM leukemia; NCI-H226 lung; MOLT-4 leukemia; U251 CNS; CAKI-1 renal; K-562 leukemia; OVCAR-5 ovarian; HL-60(TB) leukemia; KM12 colon; HCT-15 colon; NCI-H460 lung; NCI-H522 lung; HS 578T breast.
Experiment in all cases: NCI anticancer screen, dose series, 48 h

Among the data in PubChem BioAssay (NCI) are TGI values, retold here.

The structures appear in SMILES notation.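 Assay format: 96-well plates, 48-hour exposure. TGI is the concentration that stops growth completely.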

As for `CCC(C)C1=C(O)[N+]2([O-])Oc3ccc(-c4c(O)c(O)c(-c5ccc(O)cc5)c(OC(C)=O)c4OC(C)=O)cc3OC2(C(C)CC)C(=O)N1O` (centres undefined), the TGI in the test with A549 NSCLC is > 50 µM; in the test on NCI-H23 lung it was > 50 µM; in the test on CCRF-CEM leukemia, 9.65 µM; in the test with NCI-H226 lung, > 50 µM; with MOLT-4 leukemia, > 50 µM; with U251 CNS, > 50 µM. Further, the TGI in the test with CAKI-1 renal, in the test with K-562 leukemia, with OVCAR-5 ovarian, in the test on HL-60(TB) leukemia, in the test on KM12 colon and in the test with HCT-15 colon was > 50 µM throughout. Also, the TGI in the test on NCI-H460 lung and in the test with NCI-H522 lung was > 50 µM in each case.
For `O=S(=O)(O)c1cc(S(=O)(=O)O)c2c(N=Nc3ccccc3)c(O)ccc2c1`, the TGI in the test on A549 NSCLC, with NCI-H23 lung, in the test with CCRF-CEM leukemia, in the test on NCI-H226 lung, in the test on MOLT-4 leukemia and with U251 CNS was > 100 µM throughout. The TGI in the test on CAKI-1 renal, in the test on K-562 leukemia, with OVCAR-5 ovarian, with HS 578T breast, with KM12 colon and in the test on HCT-15 colon was > 100 µM each time.
`c1ccc2nc3c(nc2c1)sc1nc2ccccc2n13`: the TGI in the test on A549 NSCLC, in the test with NCI-H23 lung, with CCRF-CEM leukemia, in the test on NCI-H226 lung, in the test on MOLT-4 leukemia and in the test on U251 CNS was > 100 µM each time. The TGI with CAKI-1 renal, in the test on K-562 leukemia, in the test with OVCAR-5 ovarian, in the test with HL-60(TB) leukemia, in the test on HS 578T breast and with KM12 colon was > 100 µM throughout. Also, the TGI in the test with HCT-15 colon and in the test on NCI-H460 lung was > 100 µM each time.
For the compound `CCCCn1c(C)c(C)c2c1NN=C(C#N)S2(=O)=O`, the TGI with A549 NSCLC, in the test on NCI-H23 lung, with MOLT-4 leukemia, in the test with U251 CNS, with K-562 leukemia and in the test with OVCAR-5 ovarian was > 100 µM throughout. Besides, the TGI in the test on HS 578T breast, in the test with KM12 colon, with HCT-15 colon, with NCI-H460 lung and with NCI-H522 lung was > 100 µM each time.
As for `O=C1c2scc(-c3ccc(F)cc3)c2-n2cccc21`, the TGI in the test with A549 NSCLC is > 100 µM; with CCRF-CEM leukemia it was > 100 µM; in the test on NCI-H226 lung, > 100 µM; in the test with MOLT-4 leukemia, > 100 µM; with U251 CNS, 51.9 µM; with CAKI-1 renal it was > 100 µM. Besides, the TGI with OVCAR-5 ovarian, with HS 578T breast, in the test on KM12 colon, with HCT-15 colon, in the test on NCI-H460 lung and in the test on NCI-H522 lung was > 100 µM each time.
Turning to `COc1ccc(OC)c2sc(N3C(=O)/C(=C/c4ccc(N(C)C)cc4)N=C3c3ccccc3)nc12`, the TGI in the test on A549 NSCLC was > 100 µM; with CCRF-CEM leukemia, 24.5 µM; in the test with MOLT-4 leukemia it was 65.7 µM; in the test with U251 CNS, > 100 µM; in the test on CAKI-1 renal, > 100 µM; in the test on K-562 leukemia it was > 100 µM. The TGI with OVCAR-5 ovarian was > 100 µM; in the test on HL-60(TB) leukemia, 64.3 µM; in the test with HS 578T breast, > 100 µM; with KM12 colon, > 100 µM; in the test with HCT-15 colon it was > 100 µM; in the test on NCI-H460 lung, > 100 µM.
For the compound `COc1ccc(-c2cc(-c3ccccc3)c3c(n2)-c2ccccc2NC(=O)C3)cc1`, the TGI in the test with A549 NSCLC was > 100 µM; in the test with NCI-H23 lung, > 100 µM; in the test with NCI-H226 lung, > 100 µM; in the test on U251 CNS, > 100 µM; with CAKI-1 renal, > 100 µM; in the test with K-562 leukemia it was 8.64 µM. The TGI is > 100 µM with OVCAR-5 ovarian; > 100 µM with HL-60(TB) leukemia; 30.5 µM with HS 578T breast; > 100 µM in the test with KM12 colon; > 100 µM in the test on HCT-15 colon; > 100 µM in the test with NCI-H460 lung.
For `C=CCN1C(=O)/C(=C/c2ccccc2)N=C1SC/C=C/C`, the TGI in the test with A549 NSCLC, in the test on NCI-H23 lung, with CCRF-CEM leukemia, in the test with NCI-H226 lung, in the test on U251 CNS and with CAKI-1 renal was > 100 µM throughout. Moreover, the TGI with K-562 leukemia, in the test with HS 578T breast, with KM12 colon, in the test on HCT-15 colon, in the test with NCI-H460 lung and with NCI-H522 lung was > 100 µM each time.
As for `Cc1ccc(-n2nnc3c(NNc4ccccc4)n[nH]c(=O)c32)cc1`, the TGI with A549 NSCLC, with NCI-H23 lung, in the test on CCRF-CEM leukemia, with NCI-H226 lung, in the test with MOLT-4 leukemia and with U251 CNS was > 100 µM each time. Moreover, the TGI with CAKI-1 renal, in the test on K-562 leukemia, with OVCAR-5 ovarian, with HL-60(TB) leukemia, in the test on KM12 colon and with HCT-15 colon was > 100 µM each time. Also, the TGI in the test with NCI-H460 lung and in the test on NCI-H522 lung was > 100 µM throughout.
`C[C@@H]1C(=O)O[C@@H]2C[C@@]1(C)[C@@H]1C(=O)C3(O)OC14C2(C)OC(=O)[C@@]4(O)CCC1C3C(O)C=C2CC=CC(=O)[C@@]21C` (some centres undefined): the TGI was > 100 µM in the test on A549 NSCLC; 40.7 µM with CCRF-CEM leukemia; 57.1 µM in the test with MOLT-4 leukemia; > 100 µM in the test on U251 CNS; > 100 µM in the test with CAKI-1 renal; > 100 µM in the test on K-562 leukemia. In addition, the TGI with OVCAR-5 ovarian was 67.9 µM; in the test on HL-60(TB) leukemia, 40.8 µM; in the test on HS 578T breast, 50.7 µM; in the test with KM12 colon, 71.1 µM; in the test with HCT-15 colon, > 100 µM; with NCI-H460 lung, > 100 µM.
As to `CC1=CC(=C(c2ccc(N)c(C)c2)c2ccc(N)c(C)c2)C=CC1=N`, the TGI with A549 NSCLC amounted to 28.6 µM; in the test on NCI-H23 lung it was 12.5 µM; with CCRF-CEM leukemia, 23 µM; in the test on NCI-H226 lung it was 33.6 µM; with MOLT-4 leukemia, 30.9 µM; in the test on U251 CNS, 12.8 µM. The TGI in the test with CAKI-1 renal was 62.4 µM; with K-562 leukemia it was 22.5 µM; in the test on OVCAR-5 ovarian, > 84.4 µM; in the test with HL-60(TB) leukemia, 17.5 µM; in the test with KM12 colon it was 12.8 µM; in the test on HCT-15 colon it was > 61.4 µM. The TGI in the test with NCI-H460 lung was > 31.6 µM; in the test with NCI-H522 lung, 13.6 µM.
